From PubChem BioAssay AID328 (DTP/NCI, 2004)
“And” between values parts separate entries of the source, which are not always exact repeats. Equal values may be shown once. Inconclusive results and toxic doses are left out.

System: BDF1 mice, P388 leukemia ip, median survival T/C
Test: NCI In Vivo Anticancer Drug Screen. Data for tumor model P388 Leukemia (intraperitoneal) in B6D2F1 (BDF1) mice
Details: endpoint: median survival time, higher = longer survival
Summary of the method: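 Mice carrying the transplantable tumour receive compound or vehicle. Survival is followed in each arm, and the treated measure is divided by the vehicle measure.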

[1] = dose: 25.0 mg/kg/injection, schedule: Q01DX009 (ip), vehicle: Klucel (hydroxypropylcellulose) (HPC)
[2] = dose: 25.0 mg/kg/injection, schedule: Q04DX003 (ip), vehicle: Klucel (hydroxypropylcellulose) (HPC)
[3] = dose: 25.0 mg/kg/injection, schedule: Q04DX003 (ip), vehicle: saline with Tween-80
[4] = dose: 37.5 mg/kg/injection, schedule: Q04DX003 (ip), vehicle: saline with Tween-80
[5] = dose: 50.0 mg/kg/injection, schedule: Q01DX009 (ip), vehicle: saline with Tween-80
[6] = dose: 200.0 mg/kg/injection, schedule: Q04DX003 (ip), vehicle: saline with Tween-80
[7] = dose: 100.0 mg/kg/injection, schedule: Q04DX003 (ip), vehicle: saline
[8] = dose: 400.0 mg/kg/injection, schedule: Q04DX003 (ip), vehicle: saline
[9] = dose: 100.0 mg/kg/injection, schedule: Q01DX009 (ip), vehicle: saline with Tween-80
[10] = dose: 200.0 mg/kg/injection, schedule: Q01DX009 (ip), vehicle: saline with Tween-80
[11] = dose: 25.0 mg/kg/injection, schedule: Q01DX009 (ip), vehicle: saline with Tween-80
[12] = dose: 50.0 mg/kg/injection, schedule: Q04DX003 (ip), vehicle: saline with Tween-80

O=C1C(c2ccccc2)=S=C2Sc3ccccc3N12
T/C [1]: 100 % of control
T/C [2]: 90 % of control
T/C (dose: 50.0 mg/kg/injection, schedule: Q01DX009 (ip), vehicle: Klucel (hydroxypropylcellulose) (HPC)): 110 % of control
T/C (dose: 50.0 mg/kg/injection, schedule: Q04DX003 (ip), vehicle: Klucel (hydroxypropylcellulose) (HPC)): 90 % of control
T/C (dose: 100.0 mg/kg/injection, schedule: Q01DX009 (ip), vehicle: Klucel (hydroxypropylcellulose) (HPC)): 105 % of control
T/C (dose: 100.0 mg/kg/injection, schedule: Q04DX003 (ip), vehicle: Klucel (hydroxypropylcellulose) (HPC)): 100 % of control

CC(O)C(=O)N1Cc2cc3ccccc3nc2C1 (stereo unspecified)
T/C (dose: 50.0 mg/kg/injection, schedule: Q01DX001 (ip), vehicle: saline sonified): 95 % of control
T/C (dose: 100.0 mg/kg/injection, schedule: Q01DX001 (ip), vehicle: saline sonified): 104 % of control
T/C (dose: 200.0 mg/kg/injection, schedule: Q01DX001 (ip), vehicle: saline sonified): 95 % of control

Nc1ccc(NS(=O)(=O)Cc2ccccc2)cc1
T/C (dose: 25.0 mg/kg/injection, schedule: Q01DX001 (ip), vehicle: saline with Tween-80): 100 % of control
T/C (dose: 50.0 mg/kg/injection, schedule: Q01DX001 (ip), vehicle: saline with Tween-80): 100 % of control
T/C (dose: 100.0 mg/kg/injection, schedule: Q01DX001 (ip), vehicle: saline with Tween-80): 100 % of control

O=[N+]([O-])c1ccc(-[n+]2nc(-c3ccccc3)nn2-c2ccc(I)cc2)cc1
T/C (dose: 12.5 mg/kg/injection, schedule: Q01DX009 (ip), vehicle: Klucel (hydroxypropylcellulose) (HPC)): 100 % of control
T/C (dose: 16.5 mg/kg/injection, schedule: Q04DX003 (ip), vehicle: Klucel (hydroxypropylcellulose) (HPC)): 90 % of control
T/C (dose: 16.5 mg/kg/injection, schedule: Q04DX003 (ip), vehicle: saline): 122 % of control
T/C [1]: 110 % of control
T/C [2]: 109 % of control
T/C (dose: 25.0 mg/kg/injection, schedule: Q04DX003 (ip), vehicle: saline): 109 % of control
T/C (dose: 37.5 mg/kg/injection, schedule: Q04DX003 (ip), vehicle: Klucel (hydroxypropylcellulose) (HPC)): 100 % of control
T/C (dose: 37.5 mg/kg/injection, schedule: Q04DX003 (ip), vehicle: saline): 122 % of control

CN(N=O)C(N)=O
T/C [3]: 150 % of control
T/C [4]: 154 % of control

CC(=O)OCC1OC(n2cnc3c(=S)nc(N)[nH]c32)C(OC(C)=O)C1OC(C)=O (stereo unspecified)
T/C (dose: 3.5 mg/kg/injection, schedule: Q01DX009 (ip), vehicle: saline with Tween-80): 113 % of control
T/C (dose: 5.2 mg/kg/injection, schedule: Q01DX009 (ip), vehicle: saline with Tween-80): 122 % of control
T/C (dose: 12.0 mg/kg/injection, schedule: Q01DX009 (ip), vehicle: saline with Tween-80): 90 % of control
T/C (dose: 18.0 mg/kg/injection, schedule: Q01DX009 (ip), vehicle: saline with Tween-80): 100 % of control
T/C (dose: 26.0 mg/kg/injection, schedule: Q01DX009 (ip), vehicle: saline with Tween-80): 90 % of control
T/C (dose: 40.0 mg/kg/injection, schedule: Q01DX009 (ip), vehicle: saline with Tween-80): 90 % of control
T/C [5]: 90 % of control
T/C (dose: 132.0 mg/kg/injection, schedule: Q04DX003 (ip), vehicle: saline with Tween-80): 100 % of control
T/C [6]: 166 % of control

N#CCCCCNC(=O)C1CCC(=O)N1 (stereo unspecified)
T/C [7]: 111 % of control
T/C [8]: 111 % of control

CCCN1c2c(nc(N)[nH]c2=O)NCC1CNc1ccc(C(=O)NC(CCC(=O)O)C(=O)O)cc1 (stereo unspecified)
T/C (dose: 100.0 mg/kg/injection, schedule: Q01DX009 (ip), vehicle: saline): 108 % of control
T/C [7]: 112 % of control
T/C (dose: 200.0 mg/kg/injection, schedule: Q01DX009 (ip), vehicle: saline): 100 % of control
T/C (dose: 200.0 mg/kg/injection, schedule: Q04DX003 (ip), vehicle: saline): 100 % of control
T/C (dose: 400.0 mg/kg/injection, schedule: Q01DX009 (ip), vehicle: saline): 110 % of control
T/C [8]: 91 % of control

CC(C(O)c1ccc(Br)cc1)C(O)(C(F)(F)F)C(F)(F)F (stereo unspecified)
T/C (dose: 100.0 mg/kg/injection, schedule: Q04DX003 (ip), vehicle: other): 100 % of control
T/C (dose: 200.0 mg/kg/injection, schedule: Q04DX003 (ip), vehicle: other): 100 % of control
T/C (dose: 400.0 mg/kg/injection, schedule: Q04DX003 (ip), vehicle: other): 100 % of control

CCCC(=O)Oc1ccc(/C=N/NC(N)=S)nc1
T/C (dose: 44.0 mg/kg/injection, schedule: Q01DX009 (ip), vehicle: saline with Tween-80): 172 % of control
T/C [5]: 173 % of control
T/C (dose: 66.0 mg/kg/injection, schedule: Q01DX009 (ip), vehicle: saline with Tween-80): 183 % of control
T/C [9]: 201 % of control and 211 % of control
T/C (dose: 150.0 mg/kg/injection, schedule: Q01DX009 (ip), vehicle: saline with Tween-80): 227 % of control
T/C [10]: 115 % of control

Cc1c(C#N)c2n(c1C)CCCC(=O)N2
T/C [11]: 95 % of control
T/C [5]: 109 % of control
T/C [12]: 91 % of control
T/C [9]: 104 % of control
T/C (dose: 100.0 mg/kg/injection, schedule: Q04DX003 (ip), vehicle: saline with Tween-80): 91 % of control
T/C [10]: 100 % of control
T/C [6]: 87 % of control
T/C (dose: 400.0 mg/kg/injection, schedule: Q04DX003 (ip), vehicle: saline with Tween-80): 91 % of control

C=Cn1ccnc1C(O)(c1ccccc1)c1ccc(C(C)(C)C)cc1 (stereo unspecified)
T/C [5]: 93 % of control
T/C [9]: 90 % of control
T/C [10]: 93 % of control

CC[C@](C)(O)C(=O)O[C@H]1C(=O)O[C@@H]2C[C@H]3C(C)=C[C@H](O)[C@@H](O)[C@]3(C)[C@H]3[C@@]4(O)OC[C@]32[C@@H]1[C@@H](C)[C@H]4O
T/C (dose: 1.0 mg/kg/injection, schedule: Q01DX010 (ip), vehicle: other): 113 % of control
T/C (dose: 4.0 mg/kg/injection, schedule: Q01DX010 (ip), vehicle: other): 113 % of control

COc1cc(C=Nc2cc(Cl)c(O)c(Cl)c2)ccc1N(CCCl)CCCl
T/C (dose: 5.0 mg/kg/injection, schedule: Q04DX003 (ip), vehicle: saline with Tween-80): 181 % of control
T/C (dose: 8.0 mg/kg/injection, schedule: Q04DX003 (ip), vehicle: saline with Tween-80): 222 % of control
T/C (dose: 12.0 mg/kg/injection, schedule: Q04DX003 (ip), vehicle: saline with Tween-80): 231 % of control and 211 % of control
T/C (dose: 12.5 mg/kg/injection, schedule: Q04DX003 (ip), vehicle: saline with Tween-80): 111 % of control
T/C (dose: 17.0 mg/kg/injection, schedule: Q04DX003 (ip), vehicle: saline with Tween-80): 196 % of control
T/C [3]: 215 % of control
T/C [4]: 230 % of control
T/C [12]: 100 % of control

CN(C)CSCN(C)C
T/C [11]: 100 % of control
T/C [5]: 111 % of control
T/C [9]: 102 % of control

CCOC(=O)N1CCN(CCCCCOc2ccc(CC(C)(C)C)cc2Cl)CC1
T/C [5]: 121 % of control
T/C [9]: 118 % of control

COc1cccc2c1C(=O)c1c(O)c3c(c(O)c1C2=O)CC(O)(C(C)=O)CC3O (stereo unspecified)
T/C (dose: 1.25 mg/kg/injection, schedule: Q01DX001 (ip), vehicle: saline): 95 % of control and 104 % of control
T/C (dose: 2.5 mg/kg/injection, schedule: Q01DX001 (ip), vehicle: saline): 100 % of control and 110 % of control
T/C (dose: 5.0 mg/kg/injection, schedule: Q01DX001 (ip), vehicle: saline): 100 % of control
T/C (dose: 10.0 mg/kg/injection, schedule: Q01DX001 (ip), vehicle: saline): 100 % of control and 109 % of control

C=CCCCCCC/C=C\CCCCC
T/C (dose: 50.0 mg/kg/injection, schedule: Q01DX010 (ip), vehicle: alcohol): 104 % of control

CC[n+]1ccc(Nc2ccc(/C=C/c3ccc4cc(Nc5cc[n+](CC)cc5)ccc4[n+]3CC)cc2)cc1
T/C (dose: 2.5 mg/kg/injection, schedule: Q01DX009 (ip), vehicle: saline): 158 % of control and 161 % of control
T/C (dose: 3.13 mg/kg/injection, schedule: Q01DX009 (oral), vehicle: saline): 86 % of control
T/C (dose: 5.0 mg/kg/injection, schedule: Q01DX009 (ip), vehicle: saline): 177 % of control and 187 % of control
T/C (dose: 6.25 mg/kg/injection, schedule: Q01DX009 (oral), vehicle: saline): 93 % of control
T/C (dose: 10.0 mg/kg/injection, schedule: Q01DX009 (ip), vehicle: saline): 229 % of control and 239 % of control
T/C (dose: 12.5 mg/kg/injection, schedule: Q01DX009 (oral), vehicle: saline): 86 % of control
T/C (dose: 25.0 mg/kg/injection, schedule: Q01DX009 (oral), vehicle: saline): 86 % of control
